A word on the IC50: it is the concentration needed to halve the response being measured. The term inhibition denotes the change of the read-out against control, counted positive when it falls. A high value points to a strong effect.

Bounds are passed on as bounds.

The values below come from ChEMBL document CHEMBL1143961, “Synthesis and antiplatelet activity of ethyl 4-(1-benzyl-1H-indazol-3-yl)benzoate (YD-3) derivatives” (Bioorg Med Chem, 2008).

The subject of test [1] is Platelet. Put plainly: Inhibition of thrombin-induced human platelet aggregation. Type of test: functional, cell-based.
Test [2] has as its system Platelet. Put plainly: Inhibition of U46619-induced human platelet aggregation. Format: functional, cell-based.
The subject of test [3] is Platelet. Put plainly: Inhibition of GYPGKF-induced human platelet aggregation. Format: functional, cell-based.
The subject of test [4] is Platelet. The test can be described thus: Inhibition of SFLLRN-induced human platelet aggregation. Type of test: functional, cell-based.
Test [5] deals with Platelet. Put plainly: Inhibition of arachidonic acid-stimulated thromboxane B2 formation in human platelet assessed per 3*10^8 platelets at 5 uM. Format: functional.
Test [6] concerns the target T1, Proteinase-activated receptor 4 (Homo sapiens) (UniProt Q96RI0).
T1 sequence (whole entry): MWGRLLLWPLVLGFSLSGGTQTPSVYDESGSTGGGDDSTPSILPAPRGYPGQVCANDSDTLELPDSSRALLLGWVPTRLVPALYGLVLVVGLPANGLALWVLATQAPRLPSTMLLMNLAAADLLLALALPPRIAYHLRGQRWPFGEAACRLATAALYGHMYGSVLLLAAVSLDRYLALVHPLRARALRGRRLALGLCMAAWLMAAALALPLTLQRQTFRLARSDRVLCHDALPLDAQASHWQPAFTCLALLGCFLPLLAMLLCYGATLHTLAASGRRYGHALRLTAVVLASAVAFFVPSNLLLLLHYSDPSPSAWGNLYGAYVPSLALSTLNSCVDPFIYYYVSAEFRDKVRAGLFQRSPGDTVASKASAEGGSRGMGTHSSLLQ
The test can be described thus: Inhibition of PAR4-mediated GYPGKF-induced ATP release in human platelet assessed per 3*10^8 platelets at 1 uM.

Test [7] deals with T1, Proteinase-activated receptor 4 (Homo sapiens). The test can be described thus: Inhibition of PAR4-mediated GYPGKF-induced P-selectin expression in human platelet at 1 uM.
In test [8] the test system is Platelet. The test can be described thus: Inhibition of collagen-induced human platelet aggregation. Format: functional, cell-based.
Test [9] has as its target T1, Proteinase-activated receptor 4 (Homo sapiens). The test can be described thus: Inhibition of PAR4-mediated GYPGKF-induced ATP release in human platelet assessed per 3*10^8 platelets at 5 uM.
Test [10] relates to Platelet. The test can be described thus: Inhibition of arachidonic acid-stimulated thromboxane B2 formation in human platelet at 5 uM. Format: functional.
Test [11] addresses T1, Proteinase-activated receptor 4 (Homo sapiens). Put plainly: Inhibition of PAR4-mediated GYPGKF-induced P-selectin expression in human platelet at 5 uM.

Turning to `CCOC(=O)c1ccc(-c2nn(Cc3ccccn3)c3ccccc23)cc1`, the half-inhibitory concentration (IC50) in the test with Platelet [1] was greater than 10 µM; with Platelet [2], greater than 10 µM; in the test with Platelet [3], 0.29 µM; in the test on Platelet [4], greater than 10 µM; with Platelet [8] it was greater than 10 µM. The values for the Activity (with Platelet [5]; in test [6]) were 1013.7 ng and 3.7 ng, respectively. For the same molecule, in test [7], the inhibition was 1.2%.

`CCOC(=O)c1ccc(-c2nn(-c3ccccc3)c3ccccc23)cc1`: the half-inhibitory concentration (IC50) with Platelet [1] is greater than 10 µM; with Platelet [2], greater than 10 µM; in the test with Platelet [3], 2.64 µM; in the test on Platelet [4], greater than 10 µM; in the test with Platelet [8] it was 4.81 µM. The Activity came to 1.8 ng in test [9] and 24.4 ng with Platelet [5]. In the test on Platelet [10], this molecule gave an inhibition at 5 µM of 98.5%. The same molecule displayed an inhibition in test [11] of 1.6%.
